Experimental data: patent US20150141523A1, “COMPOUNDS FOR USE IN THE TREATMENT OF AUTOIMMUNE INFLAMMATORY DISEASE” (Venantius Limited, priority 2012, published 2015)

Columns and labels:
[1] = system: IL-2 secretion from Jurkat T cells; test: IL-2 secretion from activated Jurkat T cells (ELISA); format: cell-based, human; details: for IL-2 [ ]pg/ml (1) / IL-2 % Control (1): experiment (1); for IL-2 % Control (1) / IL-2 % Control (2) / IL-2 % Control (3): relative to DMSO 0.1%; for IL-2 [ ]pg/ml (2) / IL-2 % Control (2): experiment (2); for IL-2 [ ]pg/ml (3) / IL-2 % Control (3): experiment (3)
Method: The T cell line Jurkat 6.1 (ATCC) was used. Cells were pre-treated for 30 min with 1 μM or 10 μM of the respective compound and then stimulated with plate-bound anti-CD3 (BD Pharmingen) and anti-CD28 (AnCell). DMSO was used as vehicle control. The immunosuppressive agent Cyclosporine A was used as a control for inhibition of IL-2 production. After 24 hs the supernatant was collected and IL-2 secretion was measured by ELISA.
Jurkat T cells were cultured in RMPI-1640 medium containing 10 % Foetal Bovine Serum, Penicillin/Streptomycin and L-Glutamine in T-75cm2 flasks at 37° C. and 5 % CO2. Cells were seeded into new culture flasks at a density of 1-3×10^5 cells per ml and maintained at a density of 0.5−1×10^6 cells per ml.
(§1) (A) Anti-TCR/CD28-mediated activation of Jurkat cells: Experiments involving anti-TCR/CD28-mediated activation of Jurkat T lymphocytes were carried out on 24-well cell culture plates. The plates were coated with a 1/100 dilution of rabbit anti-mouse IgG in sterile PBS (1×) and incubated overnight at 4OC. Unbound antibody was aspirated and the wells were gently rinsed with warm sterile PBS. The PBS was aspirated and the wells were coated with a 1/100 dilution of anti-TCR antibody (OKT-3) and a 1/200 dilution of anti-CD28 antibody (both antibodies pre-mixed prior to addition to the plates) in sterile PBS. The plates were then incubated for 1-2 hours at 37° C. Unbound antibody was aspirated and the wells were gently rinsed with warm PBS. The PBS was left on the plate until the Jurkat cells were ready to be added to the plate. The Jurkat cells were harvested from the T-75cm2 cell culture flasks and resuspended at a density of 0.5×10^6 cells per ml. The compounds were dissolved at a specified stock concentration (see results section) and diluted to the required concentration by adding the drug to the cell suspension. The cells were then pre-incubated with the compounds or with an equivalent volume of drug vehicle control (DMSO) for 30 minutes prior to adding the cell suspension to the antibody-coated plates. Cyclosporine A (1 μM) was used as a positive control to inhibit IL-2 production from activated T cells and was preincubated with the 6 cells as described above in parallel. The cells were then incubated on the plates with the acti-TCR/CD28 antibodies for 24 hours at 37° C. and 5% CO2 in a humidified atmosphere. After 24 hours, the cell suspension was removed from the plates and the cells were pelleted by centrifugation. The cell culture supernatant was saved and analysed for secreted IL-2 by ELISA. The cell pellet was saved and cell viability was measured using Acridine Orange/Ethidium Bromide cell viability staining solution.
(B) PHA/PMA-mediated activation of Jurkat cells Jurkat cells were resuspended at a concentration of 0.5×10^6 cells per ml and the Pharmatrin compounds at the desired concentration or an equivalent volume of drug vehicle control (DMSO) were added to the cells and incubated for 30 minutes. Cyclosporine A (1 ∝M) was used as a positive control to inhibit IL-2 production from activated T cells and was preincubated with the cells as described above in parallel. PHA and PMA were added to the cell suspension (10 ∝g/ml and 10 ng/ml respectively) and the cells were plated onto uncoated 24-well plates. The cells were incubated on the plates for 24 hours at 37° C. and 5 % CO2 in a humidified atmosphere. After 24 hours, the cell suspension was removed from the plates and the cells were pelleted by centrifugation. The cell culture supernatant was saved and analysed for secreted IL-2 by ELISA.
The cell culture supernatants were analysed for IL-2 by ELISA (96-well plate format) using the Human IL-2 ELISA kit from R&D Systems Europe. This assay was carried out using the standard protocol outlined by the company. Samples and standards (recombinant human IL-2 provided by R&D Systems) were analysed in triplicate. […]

[2] = system: Jurkat cells; test: Jurkat cell viability (Acridine Orange/Ethidium Bromide); format: cell-based
Method: as §1
The cell pellet was resuspended in 20 μl of Acridine Orange/Ethidium Bromide staining solution. A portion of this cell suspension was placed on a haemocytometer and analysed under a fluorescence microscope. […] The ratio of viable cells: non-viable cells were calculated for each activation time point/drug treatment.

[3] = system: Balb/C mice; test: 5% DSS-induced murine colitis model; format: in vivo, mouse; details: for inhibition of DAI in DSS-induced colitis: 5% DSS colitis (FIG. 9); for effect on DSS-induced weight loss: 5% DSS colitis, 30 mg/kg p.o. (FIG. 8)

Molecule | IL-2 [ ]pg/ml (1) ([1]; 0.3 uM) [pg/mL] | IL-2 % Control (1) ([1]; 0.3 uM) [%] | IL-2 [ ]pg/ml (2) ([1]; 0.3 uM) [pg/mL] | IL-2 % Control (2) ([1]; 0.3 uM) [%] | IL-2 [ ]pg/ml (3) ([1]; 0.3 uM) [pg/mL] | IL-2 % Control (3) ([1]; 0.3 uM) [%] | IL-2 [ ]pg/ml (1) ([1]; 1 uM) [pg/mL] | IL-2 % Control (1) ([1]; 1 uM) [%] | IL-2 [ ]pg/ml (2) ([1]; 1 uM) [pg/mL] | IL-2 % Control (2) ([1]; 1 uM) [%] | IL-2 [ ]pg/ml (3) ([1]; 1 uM) [pg/mL] | IL-2 % Control (3) ([1]; 1 uM) [%] | IL-2 [ ]pg/ml (1) ([1]; 3 uM) [pg/mL] | IL-2 % Control (1) ([1]; 3 uM) [%] | IL-2 [ ]pg/ml (2) ([1]; 3 uM) [pg/mL] | IL-2 % Control (2) ([1]; 3 uM) [%] | IL-2 [ ]pg/ml (3) ([1]; 3 uM) [pg/mL] | IL-2 % Control (3) ([1]; 3 uM) [%] | IL-2 [ ]pg/ml (1) ([1]; 10 uM) [pg/mL] | IL-2 % Control (1) ([1]; 10 uM) [%] | also measured
(R,S or SR)2-Benzyl-2,3-dihydro-1H,1′H-2,2′-biinden-1-ol [Compound 8] | 44.20 | 216.67 | 50.10 | 245.59 | 107.03 | 77.39 | 37.95 | 186.03 | 39.65 | 194.36 | 111.75 | 80.81 | 34.45 | 168.87 | 36.00 | 176.47 | 102.92 | 74.42 | 20.15 | 98.77 | IL2 release from Jurkat cells [1]: inhibited IL2 release; IL-2 [ ]pg/ml (2) ([1]; 10 uM): 25.65 pg/mL; IL-2 % Control (2) ([1]; 10 uM): 125.74%; IL-2 [ ]pg/ml (3) ([1]; 10 uM): 81.78 pg/mL; IL-2 % Control (3) ([1]; 10 uM): 59.13%; IL-2 [ ]pg/ml (1) ([1]; 30 uM): -2.80 pg/mL; IL-2 % Control (1) ([1]; 30 uM): −13.73%; IL-2 [ ]pg/ml (2) ([1]; 30 uM): -3.00 pg/mL; IL-2 % Control (2) ([1]; 30 uM): −14.71%; IL-2 [ ]pg/ml (3) ([1]; 30 uM): 76.25 pg/mL; IL-2 % Control (3) ([1]; 30 uM): 55.14%; IL-2 [ ]pg/ml (1) ([1]; 100 uM): -12.55 pg/mL; IL-2 % Control (1) ([1]; 100 uM): −61.52%; IL-2 [ ]pg/ml (2) ([1]; 100 uM): -12.80 pg/mL; IL-2 % Control (2) ([1]; 100 uM): −62.75%; IL-2 [ ]pg/ml (3) ([1]; 100 uM): 8.11 pg/mL; IL-2 % Control (3) ([1]; 100 uM): 5.87%; cell viability [2]: without affecting cell viability
O[C@H]1c2ccccc2C[C@]1(Cc1ccccc1)C1=Cc2ccccc2C1 (single isomer, unassigned) [Compound 9] | 111.72 | 152.99 | 73.45 | 112.48 | 139.63 | 106.13 | 120.56 | 165.09 | 65.45 | 100.23 | 114.13 | 86.75 | 78.78 | 107.88 | 81.75 | 59.11 | 53.47 | 40.64 | 37.72 | 51.66 | IL-2 [ ]pg/ml (2) ([1]; 10 uM): 85.60 pg/mL; IL-2 % Control (2) ([1]; 10 uM): 131.09%; IL-2 [ ]pg/ml (3) ([1]; 10 uM): 36.16 pg/mL; IL-2 % Control (3) ([1]; 10 uM): 27.48%; IL-2 [ ]pg/ml (1) ([1]; 30 uM): -4.56 pg/mL; IL-2 % Control (1) ([1]; 30 uM): −6.24%; IL-2 [ ]pg/ml (2) ([1]; 30 uM): 16.35 pg/mL; IL-2 % Control (2) ([1]; 30 uM): 25.04%; IL-2 [ ]pg/ml (3) ([1]; 30 uM): -3.88 pg/mL; IL-2 % Control (3) ([1]; 30 uM): −2.95%; IL-2 [ ]pg/ml (1) ([1]; 100 uM): -3.72 pg/mL; IL-2 % Control (1) ([1]; 100 uM): −5.10%; IL-2 [ ]pg/ml (2) ([1]; 100 uM): -5.75 pg/mL; IL-2 % Control (2) ([1]; 100 uM): −8.81%; IL-2 [ ]pg/ml (3) ([1]; 100 uM): -5.28 pg/mL; IL-2 % Control (3) ([1]; 100 uM): −4.01%; inhibition of DAI in DSS-induced colitis [3]: only the S,S-enantiomer 10 caused a significant; effect on DSS-induced weight loss [3]: not
O[C@@H]1c2ccccc2C[C@@]1(Cc1ccccc1)C1=Cc2ccccc2C1 (single isomer, unassigned) [Compound 10] | 79.17 | 108.41 | 88.15 | 134.99 | 58.63 | 44.56 | 64.17 | 87.87 | 57.50 | 88.06 | 104.44 | 79.39 | 71.39 | 97.76 | 54.15 | 82.92 | 100.50 | 76.39 | 42.50 | 58.20 | IL-2 [ ]pg/ml (2) ([1]; 10 uM): 45.60 pg/mL; IL-2 % Control (2) ([1]; 10 uM): 69.83%; IL-2 [ ]pg/ml (3) ([1]; 10 uM): 80.25 pg/mL; IL-2 % Control (3) ([1]; 10 uM): 61.00%; IL-2 [ ]pg/ml (1) ([1]; 30 uM): 14.17 pg/mL; IL-2 % Control (1) ([1]; 30 uM): 19.40%; IL-2 [ ]pg/ml (2) ([1]; 30 uM): 56.70 pg/mL; IL-2 % Control (2) ([1]; 30 uM): 86.83%; IL-2 [ ]pg/ml (3) ([1]; 30 uM): 46.06 pg/mL; IL-2 % Control (3) ([1]; 30 uM): 35.01%; IL-2 [ ]pg/ml (1) ([1]; 100 uM): -11.33 pg/mL; IL-2 % Control (1) ([1]; 100 uM): −15.52%; IL-2 [ ]pg/ml (2) ([1]; 100 uM): -6.30 pg/mL; IL-2 % Control (2) ([1]; 100 uM): −9.65%; IL-2 [ ]pg/ml (3) ([1]; 100 uM): -0.78 pg/mL; IL-2 % Control (3) ([1]; 100 uM): −0.59%; inhibition of DAI in DSS-induced colitis [3]: significant (P<0.0059) inhibition; effect on DSS-induced weight loss [3]: ameliorated; disease activity index (DAI) ([3]; day 7, mean±SEM, vehicle control 6.833±1.276): 2.333±0.211
